Here are results for 10 compounds from ChEMBL document CHEMBL1142305, “The effect of flavonoid derivatives on doxorubicin transport and metabolism” (Bioorg Med Chem, 2008).

For one data set, the system named is Liver microsomes. The data set can be described thus: Metabolic stability in human liver microsomal fraction assessed as formation of doxorubicin aglycone after 60 mins. The data set is classed as ADME, Microsome. The following applies: 1 h.
Data set [1] relates to Liver. As to the kind of experiment: Metabolic stability in human liver cytosolic fraction assessed as formation of doxorubicinol after 60 mins. The format is ADME, subcellular. The conditions noted are these: cytosol, 1 h.
For data set [2], the system named is MDA-MB-435. As to the kind of experiment: Cytotoxicity against human MDA-MB-435 cells at 10 uM after 96 hrs by MTT assay. The data set is classed as cell-based. The following applies: mda-mb-435, 96 h. (Tetrazolium assays rely on reduction of a dye to a coloured formazan, in cell work by metabolically active cells.)
Data set [3] can be described thus: Decrease in [14C]DOX accumulation in human NCI-ADR-RES cells at 30 uM after 120 mins. The data set is classed as ADME, cell-based. Also noted: scale not given: the % may be the effect or the level left. The conditions noted are these: 2 h.
Data set [4] relates to Liver. The data set can be described thus: Effect on doxorubicin metabolism in human liver cytosolic fractions assessed as inhibition of formation of doxorubicinol. The data set is classed as ADME, subcellular, Cytosol.
Data set [5] is described as follows: Effect on [14C]DOX efflux in human NCI-ADR-RES cells. The data set is classed as ADME, cell-based.
In data set [6] the test system is Liver. The data set can be described thus: Effect on doxorubicin metabolism in human liver cytosolic fractions assessed as inhibition of formation of doxorubicinol at 30 uM. The format is ADME, subcellular. The conditions noted are these: cytosol.
Data set [7] concerns MDA-MB-435. The data set can be described thus: Effect on drug efflux in human MDA-MB-435 cells at 100 nM upto 120 mins. The following applies: mda-mb-435, 2 h, 0.1 µM. The format is ADME, cell-based.
The nature of data set [8]: Effect on drug efflux in human NCI-ADR-RES cells at 100 nM upto 120 mins. The format is ADME, cell-based. The following applies: 2 h, 0.1 µM.
Data set [9] deals with MDA-MB-435. The data set can be described thus: Effect on drug uptake in human MDA-MB-435 cells in presence of 10 uM verapamil. The data set is classed as ADME, cell-based.
Data set [10] relates to MDA-MB-435. As to the kind of experiment: Drug uptake in human MDA-MB-435 cells in presence of 100 uM MK-571. The format is ADME, cell-based.
Data set [11] in a line: Increase in drug uptake in human NCI-ADR-RES cells in presence of 100 uM verapamil. The format is ADME, cell-based.
The nature of data set [12]: Inhibition of drug efflux in human NCI-ADR-RES cells at 100 nM after 120 mins in presence of 100 uM verapamil. The following applies: 2 h, 0.1 µM. The data set is classed as ADME, cell-based.
The nature of data set [13]: Effect on drug uptake in human NCI-ADR-RES cells in presence of 10 uM verapamil. The data set is classed as ADME, cell-based.
The subject of data set [14] is MDA-MB-435. As to the kind of experiment: Increase in drug uptake in human MDA-MB-435 cells in presence of 100 uM verapamil. The data set is classed as ADME, cell-based.

For `COc1cccc2c1C(=O)c1c(O)c3c(c(O)c1C2=O)C[C@@](O)(C(=O)CO)C[C@@H]3O[C@H]1C[C@H](N)[C@H](O)[C@H](C)O1` [DOXORUBICIN], the Activity with Liver microsomes is given as 4.63%; in the data set with Liver [1], 15.1%.
Regarding `O=C1C[C@@H](c2ccc(O)c(O)c2)Oc2cc(O)cc(O)c21` [ERIODICTYOL], the Activity entry in the data set with MDA-MB-435 [2] is reported as “Toxic”.
Turning to `O=c1c(O)c(-c2ccc(O)c(O)c2)oc2cc(O)cc(O)c12` [QUERCETIN], the Activity is 51.3% in data set [3], “Toxic” in the data set on MDA-MB-435 [2] and “Not Active” in data set [5]. Also, the IC50 (in general, the concentration that inhibits the measured activity by half) with Liver [4] was 16.2 µM.
As to `O=C(/C=C/c1ccc(I)cc1)c1c(O)cc(O)cc1O`, the figures for the Activity entry with Liver [6] and with MDA-MB-435 [2] were “Active” and “Toxic”, respectively.
Turning to `CCc1ccc(/C=C2\Oc3cc(OC)cc(O)c3C2=O)cc1`, the Activity entry in the data set with MDA-MB-435 [2] is listed as “Toxic”.
The same measure, in the same setting: the same measure for `COc1cc(OC)c2c(c1)O/C(=C\c1cc(OC)c(OC)cc1OC)C2=O`: “Toxic”.
Regarding `COc1cc(O)c2c(c1)O/C(=C\c1ccccc1)C2=O`, the Activity result in the data set with Liver [6] is “Active”; in the data set on MDA-MB-435 [2], “Toxic”.
For `C[C@@H]1O[C@@H](O[C@H]2C[C@](O)(C(=O)CO)Cc3c(O)c4c(c(O)c32)C(=O)c2c(O[14CH3])cccc2C4=O)C[C@H](N)[C@@H]1O`, the Activity in the data set with MDA-MB-435 [7] is on record as 23%; in data set [8], 66%; in the data set with MDA-MB-435 [9] it was “Not Active”; with MDA-MB-435 [10], “Not Active”; in [12], “Active”; in [13], “Not Active”. In addition, the Fold change in data set [11] was determined as 7.6; in the data set on MDA-MB-435 [14], 3.7.
As for `O=c1c(O)c(-c2ccc(O)c(O)c2)oc2cc(O)ccc12` [FISETIN], the Activity result in the data set on MDA-MB-435 [2] is “Toxic”.
For the compound `COc1cc(O)c2c(c1)O/C(=C\c1ccc(Cl)cc1)C2=O`, the Activity entry in the data set with MDA-MB-435 [2] is given as “Toxic”.
